Holding throughout (test): NCI anticancer screen, dose series, 48 h
Assay [1] deals with A498 renal.
In assay [2] the test system is CAKI-1 renal.
Assay [3] concerns COLO 205 colon.
Assay [4] relates to RXF 393 renal.
For assay [5], the system named is SF-268 CNS.
For assay [6], the system named is SK-MEL-2 melanoma.
The subject of assay [7] is SK-MEL-5 melanoma.
In assay [8] the test system is SN12C renal.
The subject of assay [9] is SNB-19 CNS.
Assay [10] relates to TK-10 renal.

Values joined by “and” are separate entries in the source; they are usually repeats but may differ in a detail not shown here. Equal values may be shown once.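 96-well plates; 48 h exposure; 5 concentrations. Endpoints by linear interpolation between flanking doses. Not reached: highest tested concentration assigned. GI50: concentration for 50% inhibition of growth. TGI: total growth inhibition.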 Bounds are passed on as bounds.

Consider `CO[C@@H]1[C@H](OC(=O)NC(=O)CCl)CC[C@]2(CO2)[C@H]1[C@@]1(C)O[C@@H]1CC=C(C)C`, for which the GI50 was 38.6 µM in assay [1]; 29.6 µM in [2]; 9.44 µM and 2.54 µM in assay [3]; 4.08 µM and 23.7 µM in assay [4]; 20 µM in assay [5]; 23 µM in assay [6]. Also, the GI50 is 3.87 µM and 12.3 µM in assay [7]; 3.27 µM in assay [8]; 6.01 µM in [9]; 14.1 µM in [10]. For the same compound, the TGI in [1] was 33.5 µM and 74 µM; in assay [2], 25.7 µM and 59.1 µM; in [3] it was 31.5 µM and 35.7 µM; in [4], 27.9 µM and 131 µM; in [5], 33.6 µM and 74.5 µM; in assay [6] it was 35.5 µM and 68.6 µM. Also, the TGI in assay [7] was 24.2 µM and 40.7 µM; in assay [8], 31.3 µM and 25.7 µM; in [9], 45.4 µM and 69.1 µM; in assay [10], 41.3 µM and 41.7 µM.

For `O=C1CCC2(CC1)SCCCS2`, the TGI in assay [1], in [2], in assay [3], in assay [4], in [5] and in assay [6] was greater than 100 µM in each case. In addition, the TGI in [7], in assay [8], in assay [9] and in [10] was greater than 100 µM in each case.

Turning to `C=C1C(=O)O[C@H]2[C@H]1CC/C(COC(=O)NCc1c[nH]c3ccc(Cl)cc13)=C\CC[C@@]1(C)O[C@@H]21`, the GI50 in assay [1] was 1.81 µM; in assay [2], 1.45 µM; in assay [3], 1.19 µM; in assay [4], 1.37 µM; in assay [5], 1.66 µM; in assay [6], 1.42 µM. Besides, the GI50 in assay [7] is 1.64 µM; in assay [8], 1.37 µM; in [9], 3.72 µM; in assay [10] it was 1.61 µM. For the same compound, the TGI in [1] is 4.68 µM; in assay [2], 2.81 µM; in [3] it was 2.69 µM; in assay [4] it was 2.76 µM; in [5], 3.51 µM; in [6], 2.87 µM. The TGI in [7] came to 3.01 µM; in assay [8], 3 µM; in assay [9] it was 14.7 µM; in [10] it was 2.98 µM.

Regarding `CN(C)CCCc1c[nH]c2ccccc12`, the TGI in assay [1], in [2], in assay [3], in assay [4], in assay [5] and in assay [6] was greater than 100 µM in each case. In addition, the TGI in [7], in [8], in assay [9] and in [10] was greater than 100 µM in each case.

With `CC(C)(C)c1ccc(C(O)c2ccc(C(C)(C)C)cc2)cc1`, the TGI worked out at 32.9 µM in assay [1]; 28.4 µM in assay [2]; 26.7 µM in assay [3]; 31.2 µM in assay [4]; 34.6 µM in assay [5]; 29.4 µM in assay [6]. For the same compound, the TGI was determined as 30.4 µM in assay [7], 25.8 µM in assay [8], 31.8 µM in assay [9] and 35.6 µM in assay [10].

With `CC(C)(C)C(=O)C1CC(=O)c2ccccc2C1=O` (centres undefined), the TGI in [1] was 91.3 µM; in [2], 84.7 µM; in assay [3] it was greater than 100 µM; in assay [4], 80.6 µM; in [5], 69.7 µM; in assay [6] it was 33.1 µM. In addition, the TGI in [7] is 72.8 µM; in assay [8], greater than 100 µM; in assay [9] it was greater than 100 µM; in assay [10] it was greater than 100 µM.

Take `c1ccc(CN(Cn2cccn2)Cn2cccn2)nc1`: the TGI in [1], in [2], in assay [3], in [4], in assay [5] and in [6] was greater than 100 µM throughout. The TGI in [7], in assay [8], in [9] and in [10] was greater than 100 µM throughout.

For `C[C@H]1[C@H](C)CC[C@]2(C(=O)O)CC[C@]3(C)C(=CC[C@@H]4[C@@]5(C)C/C(=C/c6ccco6)C(=O)C(C)(C)[C@@H]5CC[C@]43C)[C@H]12`, the GI50 in assay [1] was 11.5 µM; in assay [2], 4.55 µM; in [3], 3.6 µM; in assay [4], 4.46 µM; in assay [5], 5.59 µM; in [6], 10.1 µM. Moreover, the GI50 is 4.44 µM in [7], 3.7 µM in [8], 5.07 µM in assay [9] and 7.9 µM in assay [10]. The TGI came to 33.8 µM in [1]; 18 µM in assay [2]; 15.1 µM in assay [3]; 16.3 µM in [4]; 22.1 µM in assay [5]; 30.4 µM in assay [6]. Moreover, the TGI came to 15.6 µM in assay [7], 18.9 µM in assay [8], 23.2 µM in assay [9] and 26.3 µM in assay [10].

`CSc1nc2sc3cc(Cl)ccc3n2c(=N)c1C#N`: the GI50 was 29.6 µM in [1]; 17.1 µM in assay [2]; 3.33 µM in assay [3]; 19.2 µM in assay [4]; 14 µM in [5]; 15.5 µM in assay [6]. Moreover, the GI50 in [7] is 3.2 µM; in [8], greater than 100 µM; in [9], greater than 64.2 µM; in [10] it was 14.1 µM. The TGI in [1] is greater than 100 µM; in assay [2], 88.2 µM; in assay [3], greater than 100 µM; in assay [4] it was greater than 100 µM; in [5], greater than 100 µM; in assay [6] it was 48.5 µM. Also, the TGI in assay [7] was greater than 25.9 µM; in assay [8], greater than 100 µM; in assay [9], greater than 100 µM; in [10] it was greater than 73.3 µM.

As for `Nc1c(C(=O)Nc2ccccc2Cl)sc2nc3c(cc12)CCCCCC3`, the GI50 was 7.73 µM in assay [1]; 3.74 µM in assay [2]; 8.52 µM in [3]; 1.85 µM in assay [4]; 3.44 µM in assay [5]; 2.77 µM in assay [6]. For the same compound, the GI50 was 3.91 µM in assay [7], 9.11 µM in assay [8], 2.93 µM in assay [9] and 2.4 µM in assay [10]. Also, the TGI in [1] was greater than 100 µM; in assay [2] it was greater than 100 µM; in assay [3] it was greater than 100 µM; in assay [4] it was 3.98 µM; in [5] it was 16.7 µM; in [6] it was 23.1 µM. Besides, the TGI is greater than 100 µM in assay [7], greater than 100 µM in [8], 20.5 µM in assay [9] and 6.22 µM in [10].

Consider `COC(=O)C1=C(CO)C2C=CC1C2` (centres undefined), for which the TGI in assay [1], in [2], in assay [3], in [4], in assay [5] and in [6] was greater than 100 µM throughout. The TGI in assay [7], in [8], in assay [9] and in assay [10] was greater than 100 µM throughout.

For the compound `Cc1ccc(S(=O)(=O)N2CCc3ccc(O)c4c3C2Cc2cc(Cl)ccc2-4)cc1` (centres undefined), the GI50 was 0.234 µM in assay [1]; 1.3 µM in assay [2]; 8.12 µM in [3]; 0.83 µM in assay [4]; 2.47 µM in [5]; 1.1 µM in [6]. For the same compound, the GI50 is 1.55 µM in [7], 1.78 µM in assay [8], 1.48 µM in assay [9] and 2.18 µM in [10]. The TGI worked out at 2.13 µM in assay [1]; 16.9 µM in [2]; 26.2 µM in assay [3]; 2.49 µM in [4]; 9.72 µM in assay [5]; 3.41 µM in assay [6]. The TGI in assay [7] worked out at 5.1 µM; in assay [8], 7.42 µM; in [9], 14.8 µM; in [10] it was 13.1 µM.

Consider `COc1cc(C(=O)c2cc3c(cc2C)OCO3)cc(OC)c1OC`, for which the GI50 is 0.0322 µM in [1]; 0.208 µM in assay [2]; 0.0584 µM in assay [3]; 0.0515 µM in [4]; 0.36 µM in assay [5]; 0.734 µM in assay [6]. Further, the GI50 in assay [7] was 0.0454 µM; in assay [8], 0.289 µM; in [10] it was 34.2 µM. Moreover, the TGI in assay [1] was 0.199 µM; in assay [2], greater than 100 µM; in assay [3], 0.413 µM; in [4], greater than 100 µM; in assay [5], greater than 100 µM; in [6] it was greater than 100 µM. The TGI was 1.74 µM in [7], greater than 100 µM in assay [8], greater than 100 µM in assay [9] and greater than 100 µM in assay [10].

As for `COc1ccc(-c2nc(-c3nc4ccc(OC)cc4[nH]3)cc3c2[nH]c2ccccc23)cc1`, the GI50 in assay [1] is 3.34 µM; in [2], 6.07 µM; in assay [3], 6.76 µM; in assay [4], 2.77 µM; in assay [5] it was 4.9 µM; in assay [6] it was 3.31 µM. Moreover, the GI50 was 2.18 µM in [7], 3.49 µM in assay [8], 3.37 µM in [9] and 3.14 µM in [10]. For the same compound, the TGI in [1] is greater than 100 µM; in [2], greater than 100 µM; in [3] it was greater than 100 µM; in [4] it was greater than 100 µM; in assay [5], greater than 100 µM; in assay [6], 49.2 µM. For the same compound, the TGI in assay [7], in [8], in assay [9] and in [10] was greater than 100 µM throughout.
